One series concerns the target T1, TbPTR1 (Trypanosoma brucei brucei, UniProt O76290).
T1 construct: made in house
T1 sequence (O76290 1-268): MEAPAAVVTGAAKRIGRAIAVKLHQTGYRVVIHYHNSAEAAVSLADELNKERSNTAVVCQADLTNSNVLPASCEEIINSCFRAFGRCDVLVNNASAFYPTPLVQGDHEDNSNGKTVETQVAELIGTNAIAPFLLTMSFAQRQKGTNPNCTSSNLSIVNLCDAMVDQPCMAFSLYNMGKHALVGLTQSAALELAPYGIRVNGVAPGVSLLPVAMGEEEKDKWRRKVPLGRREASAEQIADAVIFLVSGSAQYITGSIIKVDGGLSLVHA
Briefly: biochemical. To be noted: for inhibition at 50 µM: 50 μM compound, read-out: % Inhibition TbPTR1 at 50 μM; for IC50: dose-response 0.001-100 μM.

Series [1] deals with T. b. brucei Lister 427 bloodstream forms. Briefly: In vitro activity against T. brucei (HTS SYBR Green I growth inhibition assay). In kind it is cell-based, Trypanosoma brucei brucei. To be noted: 50 μM, standard deviation within ±10% of the value; for inhibition at 50 µM: Trypanosoma brucei, read-out: % Inhibition T. brucei at 50 μM.
The test system is the same in series [2]. Briefly: T. brucei resazurin assay for MTX potentiation and folic acid supplementation. Particulars: for antiparasitic effect as single agent: compound alone, 4m at 50 μM. Format: cell-based, Trypanosoma brucei brucei. The procedure:
T. b. brucei Lister 427 bloodstream forms were grown at 37 °C and 5% CO2 in a complete HMI-9 medium, supplemented with 10% FCS and 100 UI/mL of penicillin/streptomycin. The cultures were diluted until a cell density of 2 × 10^6/mL was reached. The efficacy of compounds against T. brucei bloodstream forms was evaluated using a modified resazurin-based assay previously described.[46] The compounds were prepared from a stock solution in 10 mM DMSO and diluted in HMI-9 (supplemented or not with 1 mM folic acid, Sigma-Aldrich) to 40 μM work solution (0.4% DMSO, with the DMSO limit in the assay being 0.4%). […] The 40 μM work solution was then used to perform serial dilutions (1:2) in a 96-well plate. Upon compound addition to the test plate, the mid-log bloodstream forms were added (100 μL) in complete HMI-9 medium (supplemented or not with 1 mM folic acid) at a final cell density of 1 × 10^4/mL in a final well volume of 200 μL with a maximum DMSO concentration of 0.2%. Following incubation for 72 h at 37 °C and 5% CO2, 20 μL of 0.5 mM resazurin solution was added, and the plates were incubated further for 4 h under the same conditions. Fluorescence was measured at 540 and 620 nm excitation and emission wavelengths, respectively, using a Synergy 2 multi-mode reader (BioTek). […] This approach requires the use of both compounds at their EC50 potency in the combination, which is impossible to be detected for compound 4m having no intrinsic antiparasitic activity as a single agent at the tested concentrations. Folic acid (1 mM) was chosen on the basis of the following experiments. The stock solution of 10 mM folic acid dissolved in NaOH solution was used to perform a dose–response curve with folic acid alone to evaluate the maximum amount we could use without compromising parasite growth due to pH modification of the media. […] The IC50 values reported are the averages of the results obtained in at least two independent experiments. Pentamidine was used as the reference drug and internal control in all assays.

The next series has as its target T2, TbDHFR (Trypanosoma brucei brucei, UniProt Q27783).
T2 construct: made in house
Briefly: TbDHFR enzyme inhibition (spectrophotometric). Format: biochemical. Particulars: 100 μM; Table S3.

In the next series the target is T3, hERG (Homo sapiens, UniProt Q12809).
T3 construct: gene KCNH2
T3 sequence (Q12809 whole entry): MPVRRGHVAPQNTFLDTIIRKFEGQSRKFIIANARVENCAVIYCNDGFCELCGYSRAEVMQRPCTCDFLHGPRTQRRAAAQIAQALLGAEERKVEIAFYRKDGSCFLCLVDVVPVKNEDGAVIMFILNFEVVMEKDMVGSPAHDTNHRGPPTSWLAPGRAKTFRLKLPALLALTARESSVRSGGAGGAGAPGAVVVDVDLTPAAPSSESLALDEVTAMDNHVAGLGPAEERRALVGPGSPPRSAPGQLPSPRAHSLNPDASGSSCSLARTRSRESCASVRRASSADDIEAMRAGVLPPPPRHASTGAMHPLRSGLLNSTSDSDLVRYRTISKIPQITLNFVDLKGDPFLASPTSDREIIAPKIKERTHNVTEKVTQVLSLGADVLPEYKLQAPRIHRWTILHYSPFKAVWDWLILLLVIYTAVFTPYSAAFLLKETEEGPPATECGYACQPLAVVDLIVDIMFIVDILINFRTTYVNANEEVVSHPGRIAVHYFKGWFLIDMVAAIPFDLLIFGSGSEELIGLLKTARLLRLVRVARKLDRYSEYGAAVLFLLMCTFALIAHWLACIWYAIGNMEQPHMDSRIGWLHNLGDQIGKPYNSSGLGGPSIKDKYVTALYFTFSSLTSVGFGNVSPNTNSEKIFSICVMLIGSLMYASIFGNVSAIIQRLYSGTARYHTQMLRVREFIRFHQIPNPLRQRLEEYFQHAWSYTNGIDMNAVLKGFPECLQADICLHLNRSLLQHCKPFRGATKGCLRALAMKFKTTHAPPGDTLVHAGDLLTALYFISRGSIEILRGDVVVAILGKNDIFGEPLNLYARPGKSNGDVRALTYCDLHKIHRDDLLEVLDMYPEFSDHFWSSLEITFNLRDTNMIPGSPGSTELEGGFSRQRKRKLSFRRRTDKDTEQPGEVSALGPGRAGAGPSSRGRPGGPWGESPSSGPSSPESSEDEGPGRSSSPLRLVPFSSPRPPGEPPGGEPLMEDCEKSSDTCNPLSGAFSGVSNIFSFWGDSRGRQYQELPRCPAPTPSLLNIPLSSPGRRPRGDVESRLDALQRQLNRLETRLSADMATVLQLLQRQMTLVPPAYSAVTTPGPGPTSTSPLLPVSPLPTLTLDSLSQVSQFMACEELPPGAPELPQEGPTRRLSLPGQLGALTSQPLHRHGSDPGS
Details: hERG inhibition liability assay.

Another series has as its target T4, hDHFR (Homo sapiens, UniProt P00374).
T4 construct: gene DHFR
T4 sequence (P00374 1-187): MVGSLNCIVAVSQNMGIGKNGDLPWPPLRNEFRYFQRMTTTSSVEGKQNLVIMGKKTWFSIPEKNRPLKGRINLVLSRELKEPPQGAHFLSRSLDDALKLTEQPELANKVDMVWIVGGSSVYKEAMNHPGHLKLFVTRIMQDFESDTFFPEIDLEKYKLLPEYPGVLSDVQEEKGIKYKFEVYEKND
Briefly: biochemical. Further details: human DHFR enzyme inhibition. A digest of the protocol:
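hDHFR inhibition tested at a single concentration of 100 μM, expressed as percent inhibitory activity.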

Entries after “also recorded” stand apart in the source; their conditions may differ.

T2 sequence (Q27783 whole entry): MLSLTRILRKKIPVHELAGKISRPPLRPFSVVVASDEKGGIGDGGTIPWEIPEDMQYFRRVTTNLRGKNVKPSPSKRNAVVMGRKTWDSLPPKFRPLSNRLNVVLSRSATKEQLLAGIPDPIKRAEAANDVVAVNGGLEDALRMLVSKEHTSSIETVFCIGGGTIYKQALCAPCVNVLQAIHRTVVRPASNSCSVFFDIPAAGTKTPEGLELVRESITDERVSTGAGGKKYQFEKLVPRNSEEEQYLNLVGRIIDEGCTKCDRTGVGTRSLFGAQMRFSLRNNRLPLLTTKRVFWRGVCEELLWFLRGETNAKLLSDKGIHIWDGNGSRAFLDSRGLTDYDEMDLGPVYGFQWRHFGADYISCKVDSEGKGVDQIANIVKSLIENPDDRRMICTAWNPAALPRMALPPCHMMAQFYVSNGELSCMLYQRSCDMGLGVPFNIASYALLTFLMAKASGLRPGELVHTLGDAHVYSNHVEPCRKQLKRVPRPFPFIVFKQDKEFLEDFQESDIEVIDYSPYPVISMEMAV

For orientation: inhibition means the percentage by which the read-out fell short of the control. Broadly, the IC50 is the midpoint of a concentration-inhibition curve. Turning to `Nc1nnc(NCCc2cccs2)s1` [4o, N2G(2G(thiophenG2Gyl)ethyl)G1,3,4GthiadiazoleG2,5Gdiamine], at TbPTR1, the inhibition at 50 µM is 79.8 ± 0.4% and the IC50 turned out to be 25 µM. In series [1], the “% Inhibition T. brucei at 50 μM” value is given as “poor antiparasitic activity” and the inhibition at 50 µM is 37.9%. The “antiparasitic effect as single agent” value in series [2] is “low T. brucei cell inhibitory activity”. Also, the “inhibitory activity against TbDHFR” value against TbDHFR is recorded as “neither 4m nor 4o is able to inhibit”. Also, the IC50 on hERG came out at 3.1 µM. In addition, on hDHFR, at 100 µM the inhibition was 24%.
For the molecule `Nc1nnc(NCc2ccc(-c3ccccc3)cc2)s1` [4m], the inhibition at 50 µM at TbPTR1 turned out to be 73 ± 1.1%; in series [1] it was 6.6%. Moreover, the results for the IC50 at TbPTR1 and at hERG were 16 µM and 3.6 µM, respectively. The “effect of 1 mM folic acid on T. b. brucei growth inhibition” value in series [2] (1 mM folic acid, MTX alone or equimolar 4m + MTX) is recorded as “reversed; also recorded: rescue cell growth”. Besides, the “antiparasitic effect as single agent” value in series [2] is listed as “did not show any significant antiparasitic effect”. The “inhibitory activity against TbDHFR” value against TbDHFR is “neither 4m nor 4o is able to inhibit”. In addition, the inhibition at 100 µM against hDHFR came out at 40%.

Values taken from article PMC5623949, “Exploiting the 2-Amino-1,3,4-thiadiazole Scaffold To Inhibit Trypanosoma brucei Pteridine Reductase in Support of Early-Stage Drug Discovery” (ACS Omega, 2017).
